Assay results: PMC5078989, “Targeted inhibition of the COP9 signalosome for treatment of cancer” (Nature Communications, 2016)

System: panel of cancer cell lines
Assay: Cell viability (CellTiter-Glo) dose-response across cancer cell line panel;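 also: after 72 h compound incubation with CellTiter-Glo ATP readout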
Format: cell-based, human
Details: Homo sapiens
Description: Next, we explored the effect of CSN5 inhibition on the viability of cancer cells. To obtain a comprehensive picture, we generated dose–response curves with a CSN5 inhibitor across more than 500 cancer cell lines in a previously described standardized setting[47] (Supplementary Data 1).
A standardized CellTiter-Glo Assay (Promega #G7570) based on the quantification of ATP was applied according to the manufacturer's protocol to measure the amount of viable cells in culture. In brief, cells were seeded into 384-well plates at optimal density for each cell line. After 4 h, compounds were added at different concentrations in growth medium and incubated for another 72 h in a humidifying chamber at 37 °C and 5% CO2. […] EC50 values were calculated from the plot of percentage of inhibition versus inhibitor concentration using the nonlinear regression analysis software Origin 7.5SR6 (OriginLab Corp.).

CC(C)C[C@H](NC(=O)[C@H](Cc1ccccc1)NC(=O)c1cnccn1)B(O)O [Bortezomib]
EC50 (NALM-6, NALM-6): 0.00808 µM
EC50 (NB1, NB-1): 0.00756 µM
EC50 (NB-4, NB-4): 0.00438 µM
EC50 (NCI-H28, NCI-H28): 0.0101 µM
EC50 (NCI-H82, cell line NCI-H82): 0.00125 µM
EC50 (NCI-H146, cell line NCI-H146): 0.0109 µM
EC50 (NCI-H196, NCI-H196): 0.027 µM
EC50 (NCI-H226, cell line NCI-H226): 0.0149 µM
EC50 (NCI-H358, NCI-H358): 0.0103 µM
EC50 (NCI-H441, NCI-H441): 0.0155 µM
EC50 (NCI-H460, cell line NCI-H460): 0.0852 µM
EC50 (NCI-H520, cell line NCI-H520): 0.00791 µM
EC50 (NCI-H524, NCI-H524): 0.00772 µM
EC50 (NCI-H596, NCI-H596): 0.021 µM
EC50 (NCI-H647, cell line NCI-H647): 0.0137 µM
EC50 (NCI-H650, NCI-H650): 0.118 µM
EC50 (NCI-H661, cell line NCI-H661): 0.0173 µM
EC50 (NCI-H716, NCI-H716): 0.00509 µM
EC50 (NCI-H727, NCI-H727): 0.0274 µM
EC50 (NCI-H810, cell line NCI-H810): 0.0118 µM
EC50 (NCI-H838, NCI-H838): 0.0285 µM
EC50 (NCI-H841, NCI-H841): 0.018 µM
EC50 (NCI-H1048, NCI-H1048): 0.0186 µM
EC50 (NCI-H1092, NCI-H1092): 0.019 µM
EC50 (NCI-H1184): 0.00724 µM
EC50 (NCI-H1299, cell line NCI-H1299): 0.0185 µM
EC50 (NCI-H1341): 0.011 µM
EC50 (NCI-H1355, cell line NCI-H1355): 0.0278 µM
EC50 (NCI-H1437, cell line NCI-H1437): 0.0195 µM
EC50 (NCI-H1563, cell line NCI-H1563): 0.0578 µM
EC50 (NCI-H1568, cell line NCI-H1568): 0.0122 µM
EC50 (NCI-H1573, NCI-H1573): 0.0382 µM
EC50 (NCI-H1581, cell line NCI-H1581): 0.0129 µM
EC50 (NCI-H1623, NCI-H1623): 0.014 µM
EC50 (NCI-H1650, cell line NCI-H1650): 0.00329 µM
EC50 (NCI-H1651, NCI-H1651): 0.00883 µM
EC50 (NCI-H1666, cell line NCI-H1666): 0.00768 µM
EC50 (NCI-H1693, NCI-H1693): 0.00561 µM
EC50 (NCI-H1703, cell line NCI-H1703): 0.00911 µM
EC50 (NCI-H1734, NCI-H1734): 0.00907 µM
EC50 (NCI-H1781, cell line NCI-H1781): 0.0129 µM
EC50 (NCI-H1792, cell line NCI-H1792): 0.0518 µM
EC50 (NCI-H1793, cell line NCI-H1793): 0.0553 µM
EC50 (NCI-H1869): 0.00335 µM
EC50 (NCI-H1944, NCI-H1944): 0.0552 µM
EC50 (NCI-H1975, cell line NCI-H1975): 0.00964 µM
EC50 (NCI-H2023, NCI-H2023): 0.0241 µM
EC50 (NCI-H2073, NCI-H2073): 0.0265 µM
EC50 (NCI-H2087, cell line NCI-H2087): 0.00721 µM
EC50 (NCI-H2122, cell line NCI-H2122): 0.0225 µM
EC50 (NCI-H2126, cell line NCI-H2126): 0.0244 µM
EC50 (NCI-H2170, cell line NCI-H2170): 0.0156 µM
EC50 (NCI-H2172, NCI-H2172): 0.0515 µM
EC50 (NCI-H2405, NCI-H2405): 0.0168 µM
EC50 (NCI-H2452, NCI-H2452): 0.0217 µM
EC50 (NCI-H3255, NCI-H3255): 0.00864 µM
EC50 (NOMO-1, NOMO-1): 0.0119 µM
EC50 (NUGC-3, cell line NUGC-3): 0.0119 µM
EC50 (NUGC-4, cell line NUGC-4): 0.0162 µM
EC50 (OAW-42, OAW42): 0.0144 µM
EC50 (OC 316): 0.00898 µM
EC50 (OC-314, OC 314): 0.0086 µM
EC50 (OCI-AML2, OCI-AML2): 0.00861 µM
EC50 (OCI-AML-3, OCI-AML3): 0.00545 µM
EC50 (OCI-AML-5, OCI-AML5): 0.00917 µM
EC50 (OCI-LY19, OCI-LY-19): 0.0112 µM
EC50 (OCI-Ly3, OCI-LY3): 0.00553 µM
EC50 (OCI-Ly10, OCI-LY10): 0.00553 µM
EC50 (OCI-M1, OCI-M1): 0.00241 µM
EC50 (OE19, cell line OE19): 0.0134 µM
EC50 (OE33, cell line OE33): 0.0201 µM
EC50 (ONCO-DG-1, ONCO-DG-1): 0.0116 µM
EC50 (OS-RC-2, OS-RC-2): 0.0187 µM
EC50 (OUMS-23, OUMS-23): 0.0141 µM
EC50 (OV7, OV7): 0.00826 µM
EC50 (OV56, cell line OV56): 0.0136 µM
EC50 (OV-90, OV-90): 0.015 µM
EC50 (OVCAR-4, cell line OVCAR-4): 0.012 µM
EC50 (OVCAR-8, cell line OVCAR-8): 0.0193 µM
EC50 (OVISE): 0.00983 µM
EC50 (OVSAHO): 0.00915 µM
EC50 (P3HR-1, P3HR-1): 0.00829 µM
EC50 (P12-Ichikawa): 0.00182 µM
EC50 (P31-FUJ, P31/FUJ): 0.00593 µM
EC50 (PANC-1, cell line PANC-1): 0.00876 µM
EC50 (PANC-03-27, cell line Panc 03.27): 0.0106 µM
EC50 (PC-14, cell line PC-14): 0.0152 µM
EC50 (PE/CA-PJ41 (clone D2)): 0.00974 µM
EC50 (PEER): 0.0117 µM
EC50 (PF-382, PF-382): 0.00273 µM
EC50 (PL-21, PL-21): 0.0117 µM
EC50 (PLC-PRF-5, PLC/PRF/5): 0.00753 µM
EC50 (PSN1, cell line PSN1): 0.0104 µM
EC50 (PaTu 8988s, PA-TU-8988S): 0.0137 µM
EC50 (Panc 02.03, cell line Panc 02.03): 0.011 µM
EC50 (Panc 04.03, cell line Panc 04.03): 0.0226 µM
EC50 (Panc1005, cell line Panc 10.05): 0.00521 µM
EC50 (RCC10RGB): 0.0051 µM
EC50 (RCH-ACV): 0.0021 µM
EC50 (RD): 0.00769 µM
EC50 (REH): 0.00469 µM
EC50 (RKN): 0.0164 µM
EC50 (RMUG-S): 0.0675 µM
EC50 (RPMI 8402, RPMI-8402): 0.00589 µM
EC50 (RPMI-7951, cell line RPMI-7951): 0.0101 µM
EC50 (RPMI-8226, cell line RPMI 8226): 0.00333 µM
EC50 (RS4-11, cell line RS4;11): 0.0017 µM
EC50 (RT-112, RT-112): 0.0052 µM
EC50 (RVH-421, RVH-421): 0.00858 µM
EC50 (Raji, cell line Raji): 0.0107 µM
EC50 (Rec1, cell line REC-1): 0.00953 µM
EC50 (Rh18, cell line RH-18): 0.0313 µM
EC50 (Rh41, cell line RH-41): 0.00735 µM
EC50 (Ri-1, RI-1): 0.0049 µM
EC50 (SCaBER, cell line SCaBER): 0.0143 µM
EC50 (SEM): 0.00239 µM
EC50 (SET-2, cell line Set-2): 0.0104 µM
EC50 (SF-126, SF126): 0.0131 µM
EC50 (SF-295, cell line SF-295): 0.0118 µM
EC50 (SH-4, SH-4): 0.00459 µM
EC50 (SH-10-TC, cell line SH-10-TC): 0.0161 µM
EC50 (SHP77, SHP-77): 0.0121 µM
EC50 (SIG-M5, SIG-M5): 0.00514 µM
EC50 (SJRH30, cell line SJRH30): 0.0165 µM
EC50 (SJSA-1, cell line SJSA-1): 0.0266 µM
EC50 (SK-BR-3, cell line SK-BR-3): 0.00643 µM
EC50 (SK-CO-1, SK-CO-1): 0.0058 µM
EC50 (SK-ES1, cell line SK-ES-1): 0.00979 µM
EC50 (SK-LMS-1, SK-LMS-1): 0.00832 µM
EC50 (SK-LU-1, SK-LU-1): 0.00951 µM
EC50 (SK-MEL3, cell line SK-MEL-3): 0.00895 µM
EC50 (SK-MEL-1, SK-MEL-1): 0.0187 µM
EC50 (SK-MEL-2, cell line SK-MEL-2): 0.0104 µM
EC50 (SK-MEL-5, cell line SK-MEL-5): 0.00881 µM
EC50 (SK-MEL-24, SK-MEL-24): 0.0197 µM
EC50 (SK-MEL-30, cell line SK-MEL-30): 0.0107 µM
EC50 (SK-MES-1, cell line SK-MES-1): 0.0158 µM
EC50 (SK-N-AS, cell line SK-N-AS): 0.00725 µM
EC50 (SK-N-DZ): 0.00889 µM
EC50 (SK-N-FI, cell line SK-N-FI): 0.0115 µM
EC50 (SK-N-SH): 0.0072 µM
EC50 (SK-OV-3, cell line SK-OV-3): 0.0268 µM
EC50 (SK-UT-1, SK-UT-1): 0.00852 µM
EC50 (SKM-1, SKM-1): 0.0037 µM
EC50 (SKNBE2, SK-N-BE(2)): 0.00865 µM
EC50 (SNG-M): 0.00704 µM
EC50 (SNU1, SNU-1): 0.017 µM
EC50 (SNU878, SNU-878): 0.0229 µM
EC50 (SNU-16, cell line SNU-16): 0.00579 µM
EC50 (SNU-119): 0.0194 µM
EC50 (SNU-216, SNU-216): 0.015 µM
EC50 (SNU-449, SNU-449): 0.0299 µM
EC50 (SNU-475, SNU-475): 0.0247 µM
EC50 (SNU-626): 0.0151 µM
EC50 (SNU-738): 0.0327 µM
EC50 (SNU-1079): 0.00889 µM
EC50 (SNU-C1, SNU-C1): 0.00382 µM
EC50 (SNU-C5): 0.0167 µM
